From US20250346593A1, “IMIDAZO(1,2-1)PYRIDINE DERIVATIVES AS RIPK2 INHIBITORS” (Interline Therapeutics, Inc., priority 2022, published 2025)
Read-outs that look alike come from different tables or passages of the source.

Experiments:
[1] = target: GST-RIPK2 fusion protein (human RIPK2 amino acids 1-310) (Homo sapiens (Human), UniProt O43353); experiment: RIPK2 binding competition assay (TR-FRET, Tracer 199)
[2] = system: NF-κB pathway (SEAP) in THP1-Dual cells; experiment: THP-1 Dual cell SEAP assay (L18-MDP stimulated); assay type: cell-based; conditions: Homo sapiens, THP1-Dual, read-out: NFkB THP1 IC50
[3] = read-out: RIPK2 IC50, RIPK2 binding competition assay

Chain of GST-RIPK2 fusion protein (human RIPK2 amino acids 1-310) (O43353 1-310): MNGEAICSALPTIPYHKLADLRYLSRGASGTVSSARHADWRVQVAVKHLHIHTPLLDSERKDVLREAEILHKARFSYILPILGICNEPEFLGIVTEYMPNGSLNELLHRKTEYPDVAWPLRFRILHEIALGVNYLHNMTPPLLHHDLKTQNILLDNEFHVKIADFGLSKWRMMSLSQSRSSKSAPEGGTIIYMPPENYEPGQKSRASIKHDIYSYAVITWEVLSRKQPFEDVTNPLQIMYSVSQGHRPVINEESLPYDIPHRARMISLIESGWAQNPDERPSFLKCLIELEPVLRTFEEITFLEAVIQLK

| SMILES | IC50 [1] | IC50 [2] | IC50 [1, 3] |
| --- | --- | --- | --- |
| CCCS(=O)(=O)Nc1cc(-c2cnn3ccc(S(=O)(=O)C(C)(C)C)cc23)cc(OC)c1OC [Example 139, N-(5-(5-(tert-butylsulfonyl)pyrazolo [1,5-a]pyridin-3-yl)-2,3-dimethoxyphenyl) propane-1-sulfonamide] | 1 to 2.5 nM | 50 to 250 nM |  |
| CCCS(=O)(=O)Nc1cc(-c2cnn3cc(OC)c(S(=O)(=O)C(C)(C)C)cc23)cc(OC)c1OC [Example 140, N-(5-(5-(tert-butylsulfonyl)-6-methoxypyrazolo[1,5-a]pyridin-3-yl)-2,3-dimethoxyphenyl) propane-1-sulfonamide] |  | < 50 nM | < 1 nM |
| COc1cn2ncc(-c3cc(NS(C)(=O)=O)c(OC)c(OC)c3)c2cc1S(=O)(=O)C(C)(C)C [Example 141, N-(5-(5-(tert-butylsulfonyl)-6-methoxypyrazolo[1,5-a]pyridin-3-yl)-2,3-dimethoxyphenyl) methanesulfonamide] | 1 to 2.5 nM | 50 to 250 nM |  |
| COc1cc2ncc(-c3ccc(N)c(OC(F)F)c3)n2cc1S(=O)(=O)C(C)(C)C [Example 142, 4-(6-(tert-butylsulfonyl)-7-methoxyimidazo[1,2-a]pyridin-3-yl)-2-(difluoromethoxy)aniline] | 2.5 to 20 nM | 250 to 1000 nM |  |
| CCc1ccc(-c2cnc3cc(OC)c(S(=O)(=O)C(C)(C)C)cn23)cc1NS(C)(=O)=O [Example 143, N-(5-(6-(tert-butylsulfonyl)-7-methoxyimidazo[1,2-a]pyridin-3-yl)-2-ethylphenyl) methanesulfonamide] | 2.5 to 20 nM | > 1000 nM |  |
| CCCS(=O)(=O)Nc1cc(-c2cnc3ccccn23)cc(F)c1OC [Example 144, N-(3-fluoro-5-(imidazo[1,2-a]pyridin-3-yl)-2-methoxyphenyl) propane-1-sulfonamide] |  | > 1000 nM | > 20 nM |
| CCCS(=O)(=O)Nc1cc(-c2cnc3cc(OC)c(S(=O)(=O)C(C)(C)C)cn23)cc(OC(F)F)n1 [Example 145, N-(4-(6-(tert-butylsulfonyl)-7-methoxyimidazo[1,2-a]pyridin-3-yl)-6-(difluoromethoxy)pyridin-2-yl)propane-1-sulfonamide] | 1 to 2.5 nM | 250 to 1000 nM |  |
| CCCS(=O)(=O)Nc1cc(-c2cnc3cc(OC)c(C(C)(C)O)cn23)cc(F)c1OC [Example 146, N-(3-fluoro-5-(6-(2-hydroxypropan-2-yl)-7-methoxyimidazo[1,2-a]pyridin-3-yl)-2-methoxyphenyl)propane-1-sulfonamide] | 1 to 2.5 nM | 50 to 250 nM |  |
| COc1cc2ncc(-c3cc(F)c(OCc4ccccc4)c(NS(C)(=O)=O)c3)n2cc1S(=O)(=O)C(C)(C)C [Example 147, N-(2-(benzyloxy)-5-(6-(tert-butylsulfonyl)-7-methoxyimidazo[1,2-a]pyridin-3-yl)-3-fluorophenyl) methanesulfonamide] | > 20 nM | > 1000 nM |  |
| COc1cc2ncc(-c3ccc(NS(C)(=O)=O)nc3)n2cc1S(=O)(=O)C(C)(C)C [Example 148, N-(5-(6-(tert-butylsulfonyl)-7-methoxyimidazo[1,2-a]pyridin-3-yl)pyridin-2-yl)methanesulfonamide] |  | > 1000 nM | > 20 nM |
| COc1cc2ncc(-c3ccc(O)nc3)n2cc1S(=O)(=O)C(C)(C)C [Example 150, 5-(6-(tert-butylsulfonyl)-7-methoxyimidazo[1,2-a]pyridin-3-yl)pyridin-2-ol] |  | > 1000 nM | > 20 nM |
| COc1cc2ncc(-c3cccc(S(C)(=O)=O)c3)n2cc1S(=O)(=O)C(C)(C)C [Example 151, 6-(tert-butylsulfonyl)-7-methoxy-3-(3-(methylsulfonyl)phenyl) imidazo[1,2-a]pyridine] |  | > 1000 nM | > 20 nM |
| COc1cc2ncc(-c3ccc(S(N)(=O)=O)cc3)n2cc1S(=O)(=O)C(C)(C)C [Example 152, 4-(6-(tert-butylsulfonyl)-7-methoxyimidazo[1,2-a]pyridin-3-yl)benzenesulfonamide] |  | > 1000 nM | > 20 nM |
| COc1cc2ncc(-c3cccc(S(N)(=O)=O)c3)n2cc1S(=O)(=O)C(C)(C)C [Example 153, 3-(6-(tert-butylsulfonyl)-7-methoxyimidazo[1,2-a]pyridin-3-yl)benzenesulfonamide] |  | > 1000 nM | > 20 nM |
| COc1cc2ncc(-c3cc(F)c(N)nc3F)n2cc1S(=O)(=O)C(C)(C)C(F)F [Example 154, 5-(6-((1,1-difluoro-2-methylpropan-2-yl)sulfonyl)-7-methoxyimidazo[1,2-a]pyridin-3-yl)-3,6-difluoropyridin-2-amine] | 2.5 to 20 nM | 50 to 250 nM |  |
| CCOc1cc2ncc(-c3cc(F)c(N)nc3C)n2cc1S(=O)(=O)C(C)C [Example 155, 5-(7-ethoxy-6-(isopropylsulfonyl)imidazo [1,2-a]pyridin-3-yl)-3-fluoro-6-methylpyridin-2-amine] |  | > 1000 nM | > 20 nM |
| COc1cc2ncc(-c3cccc(CS(C)(=O)=O)c3)n2cc1S(=O)(=O)C(C)(C)C [Example 156, 6-(tert-butylsulfonyl)-7-methoxy-3-(3-((methylsulfonyl)methyl)phenyl)imidazo[1,2-a]pyridine] |  | > 1000 nM | > 20 nM |

| SMILES | IC50 [1] | IC50 [2] | IC50 [1, 3] |
| --- | --- | --- | --- |
| COc1cc2ncc(-c3cc(N)cc(F)c3)n2cc1S(=O)(=O)C(C)(C)C [Example 157, 3-(6-(tert-butylsulfonyl)-7-methoxyimidazo[1,2-a]pyridin-3-yl)-5-fluoroaniline] | 2.5 to 20 nM | 50 to 250 nM |  |
| COc1cc2ncc(-c3ccc(OC)c(Cl)n3)n2cc1S(=O)(=O)C(C)(C)C [Example 158, 6-(tert-butylsulfonyl)-3-(6-chloro-5-methoxypyridin-2-yl)-7-methoxyimidazo[1,2-a]pyridine] |  | > 1000 nM | > 20 nM |
| CCCS(=O)(=O)Nc1nc(-c2cnc3cc(OC)c(S(=O)(=O)C(C)(C)C)cn23)ccc1CC [Example 160, N-(6-(6-(tert-butylsulfonyl)-7-methoxyimidazo[1,2-a]pyridin-3-yl)-3-ethylpyridin-2-yl)propane-1-sulfonamide] |  | > 1000 nM | > 20 nM |
| CCCS(=O)(=O)Nc1cc(OC)cc(-c2cnc3cc(OC)c(S(=O)(=O)C(C)(C)C)cn23)n1 [Example 161, N-(6-(6-(tert-butylsulfonyl)-7-methoxyimidazo[1,2-a]pyridin-3-yl)-4-methoxypyridin-2-yl)propane-1-sulfonamide] | 2.5 to 20 nM | 250 to 1000 nM |  |
| CNc1ccnc(-c2cnc3cc(OC)c(S(=O)(=O)C(C)(C)C)cn23)c1 [Example 162, 2-(6-(tert-butylsulfonyl)-7-methoxyimidazo[1,2-a]pyridin-3-yl)-N-methylpyridin-4-amine] |  | > 1000 nM | > 20 nM |
| CCCS(=O)(=O)Nc1nc(-c2cnc3cc(OC)c(S(=O)(=O)C(C)(C)C)cn23)ccc1C [Example 163, N-(6-(6-(tert-butylsulfonyl)-7-methoxyimidazo[1,2-a]pyridin-3-yl)-3-methylpyridin-2-yl)propane-1-sulfonamide] |  | > 1000 nM | > 20 nM |
| COc1cc2ncc(-c3cnc(N)c(F)c3F)n2cc1S(=O)(=O)C(C)(C)C [Example 164, 5-(6-(tert-butylsulfonyl)-7-methoxyimidazo[1,2-a]pyridin-3-yl)-3,4-difluoropyridin-2-amine] |  | > 1000 nM | > 20 nM |
| COc1cc2ncc(-c3csc(N)n3)n2cc1S(=O)(=O)C(C)(C)C [Example 165, 4-(6-(tert-butylsulfonyl)-7-methoxyimidazo[1,2-a]pyridin-3-yl)thiazol-2-amine] | 2.5 to 20 nM | 250 to 1000 nM |  |
| COc1cc2ncc(-c3cnc(N)s3)n2cc1S(=O)(=O)C(C)(C)C [Example 166, 5-(6-(tert-butylsulfonyl)-7-methoxyimidazo[1,2-a]pyridin-3-yl)thiazol-2-amine] |  | > 1000 nM | > 20 nM |
| COc1cc2ncc(-c3cc(F)c(N)nc3O)n2cc1S(=O)(=O)C(C)(C)C [Example 167, 6-amino-3-(6-(tert-butylsulfonyl)-7-methoxyimidazo[1,2-a]pyridin-3-yl)-5-fluoropyridin-2-ol] |  | > 1000 nM | > 20 nM |
| COc1ccc(CNc2cc(-c3cnc4ccc(S(=O)(=O)C(C)(C)C)cn34)cc(F)n2)cc1 [Example 168, 4-(6-(tert-butylsulfonyl)imidazo[1,2-a]pyridin-3-yl)-6-fluoro-N-(4-methoxybenzyl)pyridin-2-amine] | 1 to 2.5 nM | 250 to 1000 nM |  |
| CC(C)(C)S(=O)(=O)c1ccc2ncc(-c3cc(F)nc(NCCC4(O)CCC4)c3)n2c1 [Example 171, 1-(2-((4-(6-(tert-butylsulfonyl)imidazo [1,2-a]pyridin-3-yl)-6-fluoropyridin-2-yl)amino)ethyl)cyclo-butan-1-ol] | 1 to 2.5 nM | < 50 nM |  |
| CC(C)(O)CCNc1cc(-c2cnc3ccc(S(=O)(=O)C(C)(C)C)cn23)cc(F)n1 [Example 174, 4-((4-(6-(tert-butylsulfonyl)imidazo [1,2-a]pyridin-3-yl)-6-fluoropyridin-2-yl)amino)-2-methylbutan-2-ol] | 2.5 to 20 nM | 50 to 250 nM |  |
| COc1cc2ncc(-c3cc(F)nc(NCc4ccccc4)c3)n2cc1S(=O)(=O)C(C)(C)C [Example 175, N-benzyl-4-(6-(tert-butylsulfonyl)-7-methoxyimidazo[1,2-a]pyridin-3-yl)-6-fluoropyridin-2-amine] | < 1 nM | < 50 nM |  |
| COc1cc2ncc(-c3cc(F)nc(NCCC(C)(C)OC)c3)n2cc1S(=O)(=O)C(C)(C)C [Example 176, 4-(6-(tert-butylsulfonyl)-7-methoxyimidazo[1,2-a]pyridin-3-yl)-6-fluoro-N-(3-methoxy-3-methylbutyl)pyridin-2-amine] |  | < 50 nM | < 1 nM |
| COc1cc2ncc(-c3cc(F)nc(NC(C)C)c3)n2cc1S(=O)(=O)C(C)(C)C [Example 178, 4-(6-(tert-butylsulfonyl)-7-methoxyimidazo[1,2-a]pyridin-3-yl)-6-fluoro-N-isopropylpyridin-2-amine] |  | < 50 nM | < 1 nM |
